Laboratory results: patent US12037346B2, “Amino-substituted heteroaryls for treating cancers with EGFR mutations” (Nuvalent, Inc., priority 2021, dated 2024)

Columns and labels:
Format in all cases: cell-based
[1] = tested on: A431 cells (amplification of the wild-type EGFR gene), phospho-ERK Thr202/Tyr204; test: Cellular phosphorylation assay, pERK (phospho-ERK Thr202/Tyr204 AlphaLISA) in A431; settings: Homo sapiens, A-431, compound incubated for 5 hours
Procedure: (§1) Besides Ba/F3s, two commercially available cell lines were also used. NCI-H1781 is a HER2 exon20 insertion cell line bearing HER2-A775_G776insV-G776C. A431 bears amplification of the wild-type EGFR gene.
(§2) Ba/F3 cells were plated at 50,000 cells/well (40 μL), or NCI-H1781 cells or A431 cells were plated at 12,500 cells/well (40 μL), in a 384-well plate for 1 day. Test compounds (40 nL) were then added in a 3-fold dilution series using the TECAN EV0200 liquid handler and incubated for 5 hours. Only for pEGFR analysis in A431, the cells were briefly stimulated with EGF (30 ng/mL) for 15 minutes. Media were removed using Apricot Designs. Phosphoproteins were analyzed using the phospho-EGFR Tyr1068 AlphaLISA kit (“pEGFR”; PerkinElmer #ALSU-PEGFR-B10K;) phospho-ERK Thr202/Tyr204 AlphaLISA kit (“pERK”; PerkinElmer #ALSU-PERK-A10K) or the phospho-ErbB2 Tyr1221/1222 AlphaLISA kit (“pHER2”; PerkinElmer #ALSU-PEB2-A10K;) according to the manufacturer's instructions. Briefly, cells were lysed with lysis buffer (10 μL) containing protease-inhibitor and phosphatase-inhibitor cocktails. The lysates were transferred into a new optical plate, incubated with the acceptor mix (5 μL) for 1.5-2 hours at room temperature in darkness, and then mixed with the donor mix (5 μL) overnight in darkness. Fluorescence was measured on a plate reader using the appropriate AlphaLISA settings. Half-maximal inhibitory concentration (IC50) was calculated from percent inhibition and inhibitor concentration using four-parameter logistic regression. […]

[2] = target: T1, wild-type EGFR (A431 cells) (Homo sapiens, UniProt P00533); test: Cellular phosphorylation assay, pEGFR (phospho-EGFR Tyr1068 AlphaLISA) in A431; settings: compound incubated for 5 hours, EGF (30 ng/mL) for 15 minutes
T1 construct: A431 bears amplification of the wild-type EGFR gene; endogenous in cells; host or cells: A431
T1 sequence (P00533 25-1210): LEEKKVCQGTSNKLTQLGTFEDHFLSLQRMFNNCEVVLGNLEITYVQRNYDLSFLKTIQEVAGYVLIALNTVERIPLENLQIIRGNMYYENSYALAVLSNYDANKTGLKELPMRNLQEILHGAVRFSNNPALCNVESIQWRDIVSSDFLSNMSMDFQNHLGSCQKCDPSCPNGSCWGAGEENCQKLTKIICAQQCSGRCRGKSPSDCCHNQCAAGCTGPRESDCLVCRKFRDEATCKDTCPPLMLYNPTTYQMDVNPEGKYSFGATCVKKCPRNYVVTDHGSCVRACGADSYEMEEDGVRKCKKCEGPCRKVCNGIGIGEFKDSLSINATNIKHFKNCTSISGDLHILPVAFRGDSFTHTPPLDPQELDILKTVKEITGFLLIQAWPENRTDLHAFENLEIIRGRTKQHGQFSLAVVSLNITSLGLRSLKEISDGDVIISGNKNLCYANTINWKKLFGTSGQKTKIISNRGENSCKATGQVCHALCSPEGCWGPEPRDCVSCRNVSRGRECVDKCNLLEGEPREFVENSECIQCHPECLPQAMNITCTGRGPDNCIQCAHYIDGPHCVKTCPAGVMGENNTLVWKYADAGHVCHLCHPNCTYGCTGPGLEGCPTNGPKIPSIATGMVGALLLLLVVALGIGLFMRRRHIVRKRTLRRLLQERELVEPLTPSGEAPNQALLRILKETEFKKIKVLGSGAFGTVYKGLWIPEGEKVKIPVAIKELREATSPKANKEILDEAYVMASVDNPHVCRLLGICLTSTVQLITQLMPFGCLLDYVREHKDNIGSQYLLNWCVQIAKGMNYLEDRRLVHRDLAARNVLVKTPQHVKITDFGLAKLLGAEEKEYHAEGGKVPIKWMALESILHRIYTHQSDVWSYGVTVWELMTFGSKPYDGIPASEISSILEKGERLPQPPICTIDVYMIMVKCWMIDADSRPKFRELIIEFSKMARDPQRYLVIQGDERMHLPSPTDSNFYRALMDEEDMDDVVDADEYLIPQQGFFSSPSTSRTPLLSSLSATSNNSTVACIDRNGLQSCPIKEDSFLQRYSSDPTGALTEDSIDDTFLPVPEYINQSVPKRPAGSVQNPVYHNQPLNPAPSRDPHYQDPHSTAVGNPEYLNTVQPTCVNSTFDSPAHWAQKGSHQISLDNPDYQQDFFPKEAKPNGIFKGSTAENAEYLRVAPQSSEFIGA
Procedure: as §1, §2

[3] = target: T2, HER2-A775_G776insV-G776C (NCI-H1781 cells) (Homo sapiens, UniProt P04626, G776C/INS775V); test: Cellular phosphorylation assay, pHER2 (phospho-ErbB2 Tyr1221/1222 AlphaLISA) in NCI-H1781; settings: compound incubated for 5 hours
T2 construct: NCI-H1781 is a HER2 exon20 insertion cell line bearing HER2-A775_G776insV-G776C; endogenous in cells; host or cells: NCI-H1781
T2 sequence (P04626 with tags, fused parts or gaps INS775V/G776C): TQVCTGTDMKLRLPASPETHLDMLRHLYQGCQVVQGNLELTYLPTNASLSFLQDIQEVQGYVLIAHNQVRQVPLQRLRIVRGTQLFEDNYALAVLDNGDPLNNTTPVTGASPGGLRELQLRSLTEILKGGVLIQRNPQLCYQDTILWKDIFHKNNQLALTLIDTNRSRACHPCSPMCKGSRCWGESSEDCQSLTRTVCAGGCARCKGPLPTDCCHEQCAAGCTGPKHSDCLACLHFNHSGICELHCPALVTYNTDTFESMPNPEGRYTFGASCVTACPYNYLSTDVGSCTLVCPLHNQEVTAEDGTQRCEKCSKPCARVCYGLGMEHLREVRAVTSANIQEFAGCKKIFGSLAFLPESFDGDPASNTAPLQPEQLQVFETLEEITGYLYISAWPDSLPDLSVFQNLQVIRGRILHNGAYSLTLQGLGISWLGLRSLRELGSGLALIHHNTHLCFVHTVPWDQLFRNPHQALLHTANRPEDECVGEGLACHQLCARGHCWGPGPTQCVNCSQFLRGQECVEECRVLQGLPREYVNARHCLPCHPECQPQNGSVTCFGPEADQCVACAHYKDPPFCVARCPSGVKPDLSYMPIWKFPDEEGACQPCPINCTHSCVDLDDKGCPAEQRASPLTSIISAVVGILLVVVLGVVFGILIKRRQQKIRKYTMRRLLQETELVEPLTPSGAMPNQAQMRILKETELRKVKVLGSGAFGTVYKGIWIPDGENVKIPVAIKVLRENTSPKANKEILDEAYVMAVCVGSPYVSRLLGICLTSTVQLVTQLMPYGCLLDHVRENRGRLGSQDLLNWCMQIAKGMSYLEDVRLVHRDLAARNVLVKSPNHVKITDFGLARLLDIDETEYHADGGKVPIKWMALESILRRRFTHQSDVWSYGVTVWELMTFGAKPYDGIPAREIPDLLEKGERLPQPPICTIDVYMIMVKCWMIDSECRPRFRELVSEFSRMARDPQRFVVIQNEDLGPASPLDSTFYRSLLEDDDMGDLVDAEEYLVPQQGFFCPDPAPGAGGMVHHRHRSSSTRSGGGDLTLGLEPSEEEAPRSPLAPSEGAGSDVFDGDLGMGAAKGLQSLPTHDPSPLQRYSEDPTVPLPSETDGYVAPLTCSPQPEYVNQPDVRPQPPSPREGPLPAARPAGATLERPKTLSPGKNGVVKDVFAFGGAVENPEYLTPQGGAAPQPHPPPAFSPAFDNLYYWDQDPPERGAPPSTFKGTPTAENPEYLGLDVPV
Procedure: as §1
Ba/F3 cells were plated at 50,000 cells/well (40 μL), or NCI-H1781 cells or A431 cells were plated at 12,500 cells/well (40 μL), in a 384-well plate for 1 day. Test compounds (40 nL) were then added in a 3-fold dilution series using the TECAN EV0200 liquid handler and incubated for 5 hours. Only for pEGFR analysis in A431, the cells were briefly stimulated with EGF (30 ng/mL) for 15 minutes. Media were removed using Apricot Designs. Phosphoproteins were analyzed using the phospho-EGFR Tyr1068 AlphaLISA kit (“pEGFR”; PerkinElmer #ALSU-PEGFR-B10K;) phospho-ERK Thr202/Tyr204 AlphaLISA kit (“pERK”; PerkinElmer #ALSU-PERK-A10K) or the phospho-ErbB2 Tyr1221/1222 AlphaLISA kit (“pHER2”; PerkinElmer #ALSU-PEB2-A10K;) according to the manufacturer's instructions. Briefly, cells were lysed with lysis buffer (10 μL) containing protease-inhibitor and phosphatase-inhibitor cocktails. The lysates were transferred into a new optical plate, incubated with the acceptor mix (5 μL) for 1.5-2 hours at room temperature in darkness, and then mixed with the donor mix (5 μL) overnight in darkness. Fluorescence was measured on a plate reader using the appropriate AlphaLISA settings. Half-maximal inhibitory concentration (IC50) was calculated from percent inhibition and inhibitor concentration using four-parameter logistic regression.
HER2 is phosphorylated when activated. Therefore, phospho-HER2 indicates HER2 activity in the cells.

[4] = target: Ba/F3 HER2-YVMA cells (HER2-A775_G776insYVMA) (Homo sapiens, UniProt P04626, DUP772-775, cells depend on it); test: Cell proliferation assay (CellTiter-Glo), Ba/F3 HER2-YVMA; settings: read-out: Ba/F3 HER2-YVMA cell proliferation IC50
Ba/F3 HER2-YVMA cells (HER2-A775_G776insYVMA), sequence (P04626 with tags, fused parts or gaps DUP772-775): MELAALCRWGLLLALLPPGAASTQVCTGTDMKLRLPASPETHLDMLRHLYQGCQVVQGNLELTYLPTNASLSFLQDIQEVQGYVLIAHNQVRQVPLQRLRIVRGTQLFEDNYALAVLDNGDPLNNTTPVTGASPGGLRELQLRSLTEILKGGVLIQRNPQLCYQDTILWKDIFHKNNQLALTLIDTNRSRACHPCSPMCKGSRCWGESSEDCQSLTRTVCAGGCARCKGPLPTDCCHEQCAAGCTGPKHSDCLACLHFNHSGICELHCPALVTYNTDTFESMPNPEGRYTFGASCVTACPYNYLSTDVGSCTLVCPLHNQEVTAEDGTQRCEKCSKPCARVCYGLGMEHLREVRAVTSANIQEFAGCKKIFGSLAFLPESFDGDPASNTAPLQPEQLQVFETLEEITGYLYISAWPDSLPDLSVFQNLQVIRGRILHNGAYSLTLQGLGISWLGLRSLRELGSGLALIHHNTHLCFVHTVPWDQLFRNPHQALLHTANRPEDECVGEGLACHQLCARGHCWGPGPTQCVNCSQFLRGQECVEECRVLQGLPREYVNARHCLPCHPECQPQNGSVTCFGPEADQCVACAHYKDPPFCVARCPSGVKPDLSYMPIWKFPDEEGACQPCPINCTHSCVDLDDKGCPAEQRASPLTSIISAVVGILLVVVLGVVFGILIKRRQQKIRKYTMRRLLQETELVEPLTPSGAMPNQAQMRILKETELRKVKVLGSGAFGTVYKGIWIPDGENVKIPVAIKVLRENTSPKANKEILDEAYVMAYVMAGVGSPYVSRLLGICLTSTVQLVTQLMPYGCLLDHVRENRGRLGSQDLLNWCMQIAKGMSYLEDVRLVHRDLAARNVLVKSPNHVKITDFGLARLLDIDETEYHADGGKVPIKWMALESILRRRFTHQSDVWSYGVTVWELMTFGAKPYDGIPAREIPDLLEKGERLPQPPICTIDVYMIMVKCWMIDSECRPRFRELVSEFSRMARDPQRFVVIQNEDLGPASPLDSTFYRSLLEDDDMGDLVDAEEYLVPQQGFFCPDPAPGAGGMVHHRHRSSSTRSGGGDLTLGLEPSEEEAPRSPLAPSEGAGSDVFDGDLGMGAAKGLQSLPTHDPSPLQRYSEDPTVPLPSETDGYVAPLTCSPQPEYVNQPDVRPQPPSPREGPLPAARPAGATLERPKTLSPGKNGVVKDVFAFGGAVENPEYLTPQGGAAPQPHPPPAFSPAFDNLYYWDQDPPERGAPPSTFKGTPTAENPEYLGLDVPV
Procedure: The gene encoding HER2-A775_G776insYVMA (“HER2-YVMA”) was synthesized at GeneRay, cloned into the retroviral construct pMSCV-puro (Biovector), and packaged into retroviral particles. The virus was used to infect Ba/F3 cells (RIKEN) at multiplicity of infection=1 or 10 for 1 day. Infected cells were rescued in media (RPMI-1640 with 10% fetal bovine serum and 1% streptomycin and penicillin) supplemented with mouse IL-3 (10 ng/mL) for 2 days, and stable cell lines were selected by IL-3 withdrawal and puromycin (0.8 μg/mL) for 7 days. Monoclones were selected by single-cell dilution in IL-3-free medium containing puromycin ([…]). Transformation of desired genes was confirmed by Sanger sequencing and western blot using the following antibody: HER2 (CST #2242).
(§3) Ba/F3 cells were plated at 1,000 cells/well (40 μL), or NCI-H1781 or A431 cells were plated at 2,000 cells/well (40 μL), in a 384-well plate for 1 day. Test compounds (40 nL) were then added in a 3-fold dilution series using the TECAN EV0200 liquid handler and incubated for 48 hours (“2 days”), 72 hours (“3 days”), or 48 hours followed by renewal of compound solutions and further incubation for 72 hours (“2 days/3 days”). The 72-hour assay was necessary for NCI-H1781 cells, which are slow-growing, and the resupply of fresh compounds on day 3 obviated the potential confounding effects arising from compound degradation in cell media over 72 hours. Plates were equilibrated at room temperature for 15 minutes followed by addition of 40 μL CellTiter-Glo reagent (Promega). Luminescence was measured on a plate reader. Half-maximal inhibitory concentration (IC50) was calculated from percent inhibition and inhibitor concentration using four-parameter logistic regression. […] In these cases, the regression curve was drawn only for the first inflexion to accurately measure on-target growth inhibitory effect.
(§4) Ba/F3, NCI-H1781, and A431 proliferation is driven by the oncogenes in the same way that cancer cell proliferation in humans is driven by the expression of equivalent oncogenes.

[5] = tested on: NCI-H1781 cells (HER2-A775_G776insV-G776C); test: Cell proliferation assay (CellTiter-Glo), NCI-H1781; settings: first inflexion of biphasic curve
Procedure: as §1, §3, §4

SMILES	IC50 [1]	IC50 [2]	IC50 [3]	GI50 [4]	IC50 [5]
C=CC(=O)N1CCC(c2ncc3ncnc(Nc4ccc(Oc5ccn6ncnc6c5)c(C(F)F)c4F)c3n2)=C[C@@H]1C [Example 60]	≥ 1000 nM	500 to 1000 nM	< 100 nM	< 100 nM	
C=CC(=O)N1CCC=C(c2ccc3ncnc(Nc4ccc(Oc5ccn6ncnc6c5)c(C)c4)c3n2)CC1 [Example 1, 1-(4-[4-[(3-methyl-4-[[1,2,4]triazolo[1,5-a]pyridin-7-yloxy]phenyl)amino]pyrido[3,2-d]pyrimidin-6-yl]-2,3,6,7-tetrahydroazepin-1-yl)prop-2-en-1-one]	100 to 500 nM	100 to 500 nM	< 100 nM	< 100 nM	< 100 nM
C=CC(=O)N1CC=C(c2ncc3ncnc(Nc4ccc(Oc5ccn6ncnc6c5)c(C)c4)c3n2)CC1 [Example 18]	500 to 1000 nM	500 to 1000 nM	< 100 nM	< 100 nM	< 100 nM
C=CC(=O)N1CC=C(c2ccc3ncnc(Nc4ccc(Oc5ccn6ncnc6c5)c(C)c4)c3n2)C1 [Example 21]	≥ 1000 nM	≥ 1000 nM	< 100 nM	100 to 500 nM	100 to 500 nM
C=CC(=O)N1CCC(c2ncc3ncnc(Nc4ccc(Oc5ccn6ncnc6c5)c(C)c4F)c3n2)=C[C@@H]1C [Example 54]	100 to 500 nM	500 to 1000 nM	< 100 nM	< 100 nM	< 100 nM
C=CC(=O)N1CCC(c2ncc3ncnc(Nc4ccc(Oc5ccn6ncnc6c5)c(C(F)(F)F)c4F)c3n2)=C[C@@H]1C [Example 62]	≥ 1000 nM	≥ 1000 nM	< 100 nM	< 100 nM	
C=CC(=O)N1CCN(c2ccc3ncnc(Nc4ccc(Oc5ccn6ncnc6c5)c(C)c4)c3n2)CC1 [Example 9]	500 to 1000 nM	100 to 500 nM	< 100 nM	< 100 nM	< 100 nM
C=CC(=O)N1CC2(C1)CN(c1ccc3ncnc(Nc4ccc(Oc5ccn6ncnc6c5)c(C)c4)c3n1)C2 [Example 23]		≥ 1000 nM	< 100 nM	500 to 1000 nM	
C=CC(=O)N1CC=C(c2ncc3ncnc(Nc4cc(C)c(Oc5ccn6ncnc6c5)cc4F)c3n2)C[C@@H]1C [Example 59]		≥ 1000 nM	< 100 nM	500 to 1000 nM	
C=CC(=O)N1CCN(c2ncc3ncnc(Nc4ncc(Oc5ccn6ncnc6c5)c(C)c4F)c3n2)C[C@H]1C [Example 63]	≥ 1000 nM	≥ 1000 nM	100 to 500 nM	500 to 1000 nM	
C=CC(=O)N1CCN(c2ccc3ncnc(Nc4ncc(Oc5ccn6ncnc6c5)c(C)c4F)c3c2F)C[C@H]1C [Example 64]	≥ 1000 nM	≥ 1000 nM	< 100 nM	100 to 500 nM	
C=CC(=O)N1CC=C(c2ccc3ncnc(Nc4ccc(Oc5cc(OC)n6ncnc6c5)c(C)c4)c3n2)CC1 [Example 15]	≥ 1000 nM	≥ 1000 nM		< 100 nM	100 to 500 nM
C=CC(=O)N1CCC=C(c2ncc3ncnc(Nc4ccc(Oc5ccn6ncnc6c5)c(C)c4F)c3n2)CC1 [Example 56]		500 to 1000 nM	< 100 nM	< 100 nM	
C=CC(=O)N1CCN(c2ncc3ncnc(Nc4cc(C)c(Oc5ccn6ncnc6c5)cc4F)c3n2)C[C@H]1C [Example 50]		≥ 1000 nM	< 100 nM		100 to 500 nM
C=CC(=O)N1CC=C(c2ccc3ncnc(Nc4ccc(Oc5ccn6ncnc6c5)c(C)c4)c3c2OC)CC1 [Example 19]		≥ 1000 nM	< 100 nM	100 to 500 nM	
C=CC(=O)N1CC=C(c2ccc3ncnc(Nc4ccc(Oc5cc(Cl)n6ncnc6c5)c(C)c4)c3n2)CC1 [Example 16]	500 to 1000 nM	500 to 1000 nM		< 100 nM	100 to 500 nM
C=CC(=O)N1CCC(c2ncc3ncnc(Nc4ccc(Oc5ccn6ncnc6c5)c(C)c4F)c3n2)=C[C@H]1C [Example 55]	100 to 500 nM	≥ 1000 nM	< 100 nM	< 100 nM	
C=CC(=O)N1CCN(c2ccc3ncnc(Nc4ccc(Oc5ccn6ncnc6c5)c(C)c4)c3n2)[C@@H](C)C1 [Example 22]	500 to 1000 nM	≥ 1000 nM		< 100 nM	< 100 nM
C=CC(=O)N1CCN(c2ncc3ncnc(Nc4ccc(Oc5ccn6ncnc6c5)c(C)c4F)c3n2)[C@@H](C)C1 [Example 43]	100 to 500 nM	100 to 500 nM		< 100 nM	< 100 nM
Cc1cc(Nc2ncnc3ccc(N4CCN(C(=O)/C=C/CN(C)C)CC4)nc23)ccc1Oc1ccn2ncnc2c1 [Example 7]	100 to 500 nM	100 to 500 nM		< 100 nM	< 100 nM
C=CC(=O)N1C[C@H]2CC[C@@H]1CN2c1ncc2ncnc(Nc3ccc(Oc4ccn5ncnc5c4)c(C)c3F)c2n1 [Example 45]	≥ 1000 nM	≥ 1000 nM		< 100 nM	100 to 500 nM
C=CC(=O)N1CCN(c2ccc3ncnc(Nc4ccc(Oc5ccn6ncnc6c5)c(C)c4)c3c2OC)CC1 [Example 20]	≥ 1000 nM	≥ 1000 nM		< 100 nM	< 100 nM
C=CC(=O)N1CCN(c2ccc3ncnc(Nc4ccc(Oc5ccn6ncnc6c5)c(C)c4)c3n2)C[C@H]1C [Example 6]	100 to 500 nM	100 to 500 nM		< 100 nM	< 100 nM
C=CC(=O)N1CCN(c2ncc3ncnc(Nc4cc(C)c(Oc5cc(C)n6ncnc6c5)cc4F)c3n2)C[C@H]1C [Example 51]	≥ 1000 nM	≥ 1000 nM	< 100 nM	< 100 nM	
C=CC(=O)N1CCCN(c2ccc3ncnc(Nc4ccc(Oc5ccn6ncnc6c5)c(C)c4)c3n2)CC1 [Example 14]	≥ 1000 nM	≥ 1000 nM	< 100 nM	100 to 500 nM	
